Biological target: T1, GST-tagged ROR gamma ligand binding domain (LBD) (Homo sapiens, UniProt P51449)
T1 construct: purchased Invitrogen
T1 sequence (P51449 269-508 limits assumed): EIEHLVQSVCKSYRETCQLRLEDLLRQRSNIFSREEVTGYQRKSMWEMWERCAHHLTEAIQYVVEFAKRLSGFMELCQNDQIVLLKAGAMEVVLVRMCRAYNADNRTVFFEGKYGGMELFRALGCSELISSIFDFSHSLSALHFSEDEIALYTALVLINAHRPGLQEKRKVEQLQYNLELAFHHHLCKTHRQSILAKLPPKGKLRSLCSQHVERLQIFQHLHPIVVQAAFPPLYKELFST
Assay: TR-FRET assay for ROR gamma (LanthaScreen co-activator peptide recruitment)
Assay type: biochemical
Conditions: for inhibition at 1 µM: compound concentration 1 μM; for inhibition at 1 µM / inhibition at 10 µM: TR-FRET ratio 520/495, percent of control; for inhibition at 10 µM: compound concentration 10 μM; for IC50: from dose response curve, nonlinear regression, read-out: IC50 range
Text: The compounds described herein were screened for ROR gamma modulator activity using the TR-FRET assay (LanthaScreen™ available from Invitrogen of Carlsbad, Calif.) as described in JBC 2011, 286, 26: 22707-10; and Drug Metabolism and Disposition 2009, 37, 10: 2069-78.
Binding of the co-activator peptide, causes an increase in the TR-FRET signal while binding of an antagonist decreases the recruitment of the co-activator peptide, causing a decrease in the TR-FRET signal compared to control with no compound. The assay was performed using a two-step procedure, pre-incubation step with the compound followed by the detection step on addition of the anti-GST tagged terbium (Tb) and fluorescein tagged fluorophores as the acceptor.
Test compounds or reference compounds such as T0901317 (Calbiochem) were dissolved in dimethylsulfoxide (DMSO) to prepare 10.0 mM stock solutions and diluted to the desired concentration. The final concentration of DMSO in the reaction was 4% (v/v). The assay mixture was prepared by mixing 10 nM of the GST-tagged ROR gamma ligand binding domain (LBD) in the assay buffer containing 25 mM HEPES (pH 7.4), 100 mM NaCl, 5 mM DTT and 0.01% BSA with or without the desired concentration of the compound. The reaction was incubated at 22° C. for 1 hour. The pre-incubation step was terminated by addition of the detection mixture containing 300 nM Fluorescein-D22 co-activator peptide and 10 nM lantha screen Tb-anti GST antibody into the reaction mixture.
After shaking for 5 minutes the reaction was further incubated for 1 hour at room temperature and read at 4° C. on an Infinite F500 reader as per the kit instructions (Invitrogen). The inhibition of test compound was calculated based on the TR-FRET ratio of 520/495. The activity was calculated as a percent of control reaction. IC50 values were calculated from dose response curve by nonlinear regression analysis using GraphPad Prism software.

| Structure (SMILES) | inhibition at 1 µM [%] | inhibition at 10 µM [%] | IC50 [nM] |
| --- | --- | --- | --- |
| CCc1ccccc1-c1nccnc1-c1ccc(NC(=O)Cc2ccc(C(F)(F)C(C)O)cc2)cc1 (stereo not drawn) [Example 40, 2-(4-(1,1-Difluoro-2-hydroxypropyl)phenyl)-N-(4-(3-(2-ethylphenyl)pyrazin-2-yl)phenyl)acetamide] | 71.4 | 76.9 | < 50 |
| CCC(F)(F)c1ccc(CC(=O)Nc2ccc(-c3nccnc3NC(C)c3ccccc3)cc2)cc1 (stereo not drawn) [Example 58, 2-(4-(1,1-Difluoropropyl)phenyl)-N-(4-(3-((1-phenylethyl)amino)pyrazin-2-yl)phenyl)acetamide] | 80.3 | 90.7 | 100 to 500 |
| COCC(F)(F)c1ccc(CC(=O)Nc2ccc(-c3nccnc3-c3ccc(Cl)cc3)cc2)cc1 [Example 3, N-(4-(3-(4-Chlorophenyl)pyrazin-2-yl)phenyl)-2-(4-(1,1-difluoro-2-methoxyethyl)phenyl)acetamide] | 74 | 84.8 | 50 to 100 |
| CCC(F)(F)c1ccc(CC(=O)Nc2ccc(-c3nccnc3Oc3ccccc3Cl)cc2)cc1 [Example 87, N-(4-(3-(2-Chlorophenoxy)pyrazin-yl)phenyl)-2-(4-(1,1-difluoropropyl)phenyl)acetamide] | 16.3 | 32.4 | – |
| CCC(F)(F)c1ccc(CC(=O)Nc2ccc(-c3nccnc3N[C@@H](C)c3ccccc3Cl)cc2)cc1 [Example 66, (S)-N-(4-(3-((1-(2-Chlorophenyl)ethyl)amino)pyrazin-2-yl)phenyl)-2-(4-(1,1-difluoropropyl)phenyl)acetamide] | 88.4 | 90.2 | < 50 |
| Cc1ncsc1CCOc1nccnc1-c1ccc(NC(=O)Cc2ccc(C(F)(F)C(C)O)cc2)cc1 (stereo not drawn) [Example 92, 2-(4-(1,1-Difluoro-2-hydroxypropyl)phenyl)-N-(4-(3-(2-(4-methylthiazol-5-yl)ethoxy)pyrazin-2-yl)phenyl)acetamide] | 83.5 | 88 | 50 to 100 |
| CCC(F)(F)c1ccc(CC(=O)Nc2ccc(-c3nccnc3-c3ccc(Cl)cc3)cc2)cc1 [Example 1, N-(4-(3-(4-chlorophenyl)pyrazin-2-yl)phenyl)-2-(4-(1,1-difluoropropyl)phenyl) acetamide] | 80.9 | 81.5 | < 50 |
| Cc1ccc([C@H](C)Nc2nccnc2-c2ccc(NC(=O)Cc3ccc(C(F)(F)C(C)O)cc3)cc2)c(C)c1 (stereo partly drawn) [Example 95, 2-(4-(1,1-Difluoro-2-hydroxypropyl)phenyl)-N-(4-(3-(((S)-1-(2,4-dimethylphenyl)ethyl)amino)pyrazin-2-yl)phenyl)acetamide] | 93.7 | 95.4 | < 50 |
| CC(O)C(F)(F)c1ccc(CC(=O)Nc2ccc(-c3nccnc3-c3ccc(Cl)cc3)cc2)cc1 (stereo not drawn) [Example 2, N-(4-(3-(4-chlorophenyl)pyrazin-2-yl)phenyl)-2-(4-(1,1-difluoro-2-hydroxypropyl)phenyl)acetamide] | 76.1 | 82.7 | < 50 |
| CC(O)C(F)(F)c1ccc(CC(=O)Nc2ccc(-c3nccnc3-c3ccc(F)c(F)c3)cc2)cc1 (stereo not drawn) [Example 9, 2-(4-(1,1-Difluoro-2-hydroxypropyl)phenyl)-N-(4-(3-(3,4-difluorophenyl)pyrazin-2-yl)phenyl)acetamide] | 55.2 | 72.1 | > 500 |
| CCC(F)(F)c1ccc(CC(=O)Nc2ccc(-c3nccnc3N3CCN(C(=O)C4CC4)CC3)cc2)cc1 [Example 96, N-(4-(3-(4-(Cyclopropanecarbonyl)piperazin-1-yl)pyrazin-2-yl)phenyl)-2-(4-(1,1-difluoropropyl)phenyl)acetamide] | 47.7 | 77.2 | – |
| CC(O)C(F)(F)c1ccc(CC(=O)Nc2ccc(-c3nccnc3N3CCC(F)(F)CC3)cc2)cc1 (stereo not drawn) [Example 18, 2-(4-(1,1-Difluoro-2-hydroxypropyl)phenyl)-N-(4-(3-(4,4-difluoropiperidin-1-yl)pyrazin-2-yl)phenyl)acetamide] | 32.4 | 71.2 | – |
| CCC(F)(F)c1ccc(CC(=O)Nc2ccc(-c3nccnc3N(C)[C@@H](C)c3ccc(Cl)cc3)cc2)cc1 [Example 65, (S)-N-(4-(3-((1-(4-Chlorophenyl)ethyl)(methyl)amino)pyrazin-2-yl)phenyl)-2-(4-(1,1-difluoropropyl)phenyl)acetamide] | 76.1 | 83.2 | 100 to 500 |
| CCC(F)(F)c1ccc(CC(=O)Nc2ccc(-c3nccnc3O[C@H](C)c3ccccc3Cl)cc2)cc1 [Example 83, (R)-N-(4-(3-(1-(2-Chlorophenyl)ethoxy)pyrazin-2-yl)phenyl)-2-(4-(1,1-difluoropropyl)phenyl)acetamide] | 79.7 | 78.2 | 50 to 100 |
| CCC(F)(F)c1ccc(CC(=O)Nc2ccc(-c3cccnc3-c3ccc(Cl)cc3)cc2)cc1 [Example 34, N-(4-(2-(4-Chlorophenyl)pyridin-3-yl)phenyl)-2-(4-(1,1-difluoropropyl)phenyl)acetamide] | 57.9 | 66.8 | – |
| CC(O)C(F)(F)c1ccc(CC(=O)Nc2ccc(-c3nccnc3NCC3CCCCC3)cc2)cc1 (stereo not drawn) [Example 71, N-(4-(3-((Cyclohexylmethyl)amino)pyrazin-2-yl)phenyl)-2-(4-(1,1-difluoro-2-hydroxypropyl)phenyl)acetamide] | 20.5 | 73.7 | – |
| CC(O)C(F)(F)c1ccc(CC(=O)Nc2ccc(-c3nccnc3OCc3ccccc3)cc2)cc1 (stereo not drawn) [Example 78, N-(4-(3-(Benzyloxy)pyrazin-2-yl)phenyl)-2-(4-(1,1-difluoro-2-hydroxypropyl)phenyl)acetamide] | 89.6 | 93.9 | < 50 |
| CC(O)C(F)(F)c1ccc(CC(=O)Nc2ccc(-c3nccnc3O[C@@H](C)c3ccccc3Cl)cc2)cc1 (stereo partly drawn) [Example 86, N-(4-(3-((S)-1-(2-Chlorophenyl)ethoxy)pyrazin-2-yl)phenyl)-2-(4-(1,1-difluoro-2-hydroxypropyl)phenyl)acetamide] | 84.5 | 86 | 50 to 100 |
| CCC(F)(F)c1ccc(CC(=O)Nc2ccc(-c3nccnc3-c3ccncc3)cc2)cc1 [Example 17, 2-(4-(1,1-Difluoropropyl)phenyl)-N-(4-(3-(pyridin-4-yl)pyrazin-2-yl)phenyl)acetamide] | 60.5 | 74.4 | – |
| CCc1ccccc1-c1nccnc1-c1ccc(NC(=O)Cc2ccc(C(F)(F)[C@@H](C)O)cc2)cc1 [Example 53, (R)-2-(4-(1,1-difluoro-2-hydroxypropyl)phenyl)-N-(4-(3-(2-ethylphenyl)pyrazin-2-yl)phenyl)acetamide] | 70.5 | 77 | < 50 |
| CCC(F)(F)c1ccc(CC(=O)Nc2ccc(-c3ncccc3-c3ccc(Cl)cc3)cc2)cc1 [Example 7, N-(4-(3-(4-Chlorophenyl)pyridin-2-yl)phenyl)-2-(4-(1,1-difluoropropyl)phenyl)acetamide] | 83 | 86.2 | < 50 |
| CCC(F)(F)c1ccc(CC(=O)Nc2ccc(-c3nccnc3O[C@@H](C)c3ccccc3)cc2)cc1 [Example 80, (S)-2-(4-(1,1-Difluoropropyl)phenyl)-N-(4-(3-(1-phenylethoxy)pyrazin-2-yl)phenyl)acetamide] | 69.5 | 86.3 | 100 to 500 |
| CCC(F)(F)c1ccc(CC(=O)Nc2ccc(-c3cnccc3-c3ccc(Cl)cc3)cc2)cc1 [Example 35, N-(4-(4-(4-Chlorophenyl)pyridin-3-yl)phenyl)-2-(4-(1,1-difluoropropyl)phenyl)acetamide] | 72.8 | 73.3 | 100 to 500 |
| CCC(F)(F)c1ccc(CC(=O)Nc2ccc(-c3nccnc3N[C@@H](C)c3ccc(F)cc3C)cc2)cc1 [Example 67, (S)-2-(4-(1,1-Difluoropropyl)phenyl)-N-(4-(3-((1-(4-fluoro-2-methylphenyl)ethyl)amino)pyrazin-2-yl)phenyl)acetamide] | 87.9 | 92.4 | < 50 |

Source: US10344024B2, “Compounds as ROR gamma modulators” (Glenmark Pharmaceuticals S.A., priority 2015, dated 2019)
